# Key:
# Format in all cases: in vivo
# johnsongrass [1] = assay: Upland foliar application test by mixed formulations (Test 7); conditions: Sorghum halepense, 720 h, applied alone, 30th day, read-out: Herbicidal effects (%) Johnsongrass Ea; for pest or weed control at 1000 g/ha: 1 kg/ha; for pest or weed control at 300 g/ha: 0.3 kg/ha
# Description: (§1) Resin-made 1/10,000-are pots were filled with the soil of an upland field. Redroot pigweed, morningglories, johnsongrass, barnyardgrass and green foxtail were separately seeded and were allowed to germinate in a green house. When each plant grew to the stage of 2-3 leaves, an emulsion formulated from predetermined amounts of two test compounds of different kinds in a similar manner to the method described in Formulation Example 16 was diluted with water to a predetermined dilution rate and then sprayed at an application rate equal to 5 l per are onto the foliage of each plant by means of a pressure-operated ULV (ultra low volume) sprayer. Influence to the weeds were observed on the 30th day after the spray of the herbicides. In the table, each Ea means an acutally measured value of herbicidal activities when two kinds of herbicides were mixed. Each Ec is an expected value for herbicidal activities, calculated in accordance with the below-described calculation formula proposed by Colby et al. [Colby, S. R., Weed 15, 20-22 (1967)]. Ea>Ec indicates the existence of synergistic action while […] action. [formula] Ec: Growth inhibition rate (%) expected when Ingredient I and Ingredient II are mixed.
# (§2) Ex: Growth inhibition rate (%) when treated with Ingredient I alone.
# (§3) Ey: Growth inhibition rate (%) when treated with Ingredient II alone.
# barnyardgrass [2] = assay: as above; conditions: Echinochloa crus-galli, 720 h, applied alone, 30th day, read-out: Herbicidal effects (%) Barnyardgrass Ea; for pest or weed control at 1000 g/ha: 1 kg/ha; for pest or weed control at 300 g/ha: 0.3 kg/ha
# Description: as §1, §2, §3
# green foxtail = assay: as above; conditions: applied alone, 30th day; for pest or weed control at 1000 g/ha / pest or weed control at 300 g/ha: Setaria viridis, 720 h, read-out: Herbicidal effects (%) Green foxtail Ea; for pest or weed control at 1000 g/ha: 1 kg/ha; for pest or weed control at 300 g/ha / Herbicidal effects (%) Green foxtail Ea: 0.3 kg/ha
# Description: as §1, §2, §3
# morningglories = assay: as above; conditions: Ipomoea, 720 h, applied alone, 30th day, read-out: Herbicidal effects (%) Morningglory Ea; for pest or weed control at 1000 g/ha: 1 kg/ha; for pest or weed control at 300 g/ha: 0.3 kg/ha
# Description: as §1, §2, §3
# bulrush = assay: Treatment of soil under submerged condition, pre-emergence (Test 4); conditions: 30 g ai/a granule, 30 days later
# Description: (§4) 1/5000-are Wagner pots were filled with soil. Seeds or tubers of barnyardgrass, Monochoria vaginalis, bulrush, Sagittaria pygmaea, Cyperus seroylnus and Eleocharis kuroguwai were seeded or planted under submerged condition. Two pairs of rice seedlings (2-3 leaf stage), which had been reared in advance, were transplanted to each pot and were allowed to germinate in a green house. Each pair consisted of two rice seedlings. One day later (before emergence of weeds), each pot was treated with a granule which had been prepared by processing a predetermined amount of the test composition in accordance with a similar method to the method described in Formulation Example 9. The state of emergence of weeds and the state of injury of rice were observed 30 days later.
# (§5) In the table, the degrees of damages of the test plants and the degrees of injury of rice are shown in a similar manner to Example 2.
# Sagittaria pygmaea = assay: as above; conditions: 30 g ai/a granule, 30 days later
# Description: as §4, §5
# barnyardgrass [3] = assay: as above; conditions: 30 g ai/a granule, 30 days later
# Description: as §4, §5
# johnsongrass [4] = assay: Upland foliar application test by mixed formulations, concentration gradient (Test 8); conditions: Sorghum halepense, 960 h, applied alone, 40th day, read-out: Herbicidal effects Johnsongrass Ea; for pest or weed control at 100 g/ha: 1 g/a; for pest or weed control at 200 g/ha: 2 g/a
# Description: (§6) Resin-made 1/10,000-are pots were filled with the soil of an upland field. Redroot pigweed and johnsongrass were separately seeded and were allowed to germinate in a green house. When each plant grew to the stage of 2-3 leaves, emulsions formulated with concentration gradient from predetermined amounts of two test compounds of different kinds in a similar manner to the method described in Formulation Example 16 was diluted with water to a predetermined dilution rate and then sprayed at an application rate equal to 5 l per are onto the foliage of each plant by means of a pressure-operated ULV (ultra low volume) sprayer. Influence to the weeds were observed on the 40th day after the spray of the herbicides. The results are shown in Table 9, In the table, Ea have the same meanings as in Test 7, and Ea>Ec indicates the existence of synergistic action while Ea<Ec indicates the existence of antagonistic action.
# redroot pigweed [5] = assay: as above; conditions: Amaranthus retroflexus, 960 h, applied alone, 40th day, read-out: Herbicidal effects Redrood pigweed Ea; for pest or weed control at 100 g/ha: 1 g/a; for pest or weed control at 200 g/ha: 2 g/a
# Description: as §6
# redroot pigweed [6] = assay: Upland foliar application test by mixed formulations (Test 7); conditions: Amaranthus retroflexus, 720 h, applied alone, 30th day, read-out: Herbicidal effects (%) Redrood pigweed Ea; for pest or weed control at 300 g/ha: 0.3 kg/ha; for pest or weed control at 1000 g/ha: 1 kg/ha
# Description: as §1, §2, §3
smiles,measurement,setting,value
COc1cc(OC)nc(Oc2ccccc2C=NOC2CCCCC2)n1 [Compound No. 3],pest or weed control at 1000 g/ha,johnsongrass [1],40%
same,pest or weed control at 1000 g/ha,barnyardgrass [2],40%
same,pest or weed control at 1000 g/ha,green foxtail,20%
same,pest or weed control at 1000 g/ha,morningglories,0%
same,Herbicidal effects Bulrush,bulrush,4 (6-10 (Severe damages))
same,Herbicidal effects Sagittaria Pygmaea,Sagittaria pygmaea,5 (0-5 (Death))
same,Herbicidal effects Barnyardgrass,barnyardgrass [3],4 (6-10 (Severe damages))
COc1cc(OC)nc(Oc2ccccc2C=NOCC=Cc2ccccc2)n1 [Compound No. 9],pest or weed control at 100 g/ha,johnsongrass [4],10%
same,pest or weed control at 200 g/ha,johnsongrass [4],20%
same,pest or weed control at 100 g/ha,redroot pigweed [5],10%
same,pest or weed control at 200 g/ha,redroot pigweed [5],30%
same,pest or weed control at 300 g/ha,barnyardgrass [2],50%
same,pest or weed control at 300 g/ha,redroot pigweed [6],50%
same,pest or weed control at 300 g/ha,green foxtail,70%
same,Herbicidal effects (%) Green foxtail Ea,green foxtail,70%
same,pest or weed control at 300 g/ha,morningglories,0%
same,Herbicidal effects Bulrush,bulrush,4 (6-10 (Severe damages))
same,Herbicidal effects Sagittaria Pygmaea,Sagittaria pygmaea,5 (0-5 (Death))
same,Herbicidal effects Barnyardgrass,barnyardgrass [3],5 (0-5 (Death))
"C#CCON=Cc1ccccc1Oc1nc(OC)cc(OC)n1 [Compound No. 13, 0-(2-propynyl)-2-(4,6-dimethoxy-2-pyrimidinyloxy)benzaldoxime]",pest or weed control at 100 g/ha,johnsongrass [4],30%
same,pest or weed control at 200 g/ha,johnsongrass [4],50%
same,pest or weed control at 100 g/ha,redroot pigweed [5],20%
same,pest or weed control at 200 g/ha,redroot pigweed [5],40%
same,pest or weed control at 1000 g/ha,barnyardgrass [2],70%
same,pest or weed control at 1000 g/ha,redroot pigweed [6],70%
same,pest or weed control at 1000 g/ha,green foxtail,40%
same,pest or weed control at 1000 g/ha,morningglories,10%
same,Herbicidal effects Bulrush,bulrush,5 (0-5 (Death))
same,Herbicidal effects Sagittaria Pygmaea,Sagittaria pygmaea,4 (6-10 (Severe damages))
same,Herbicidal effects Barnyardgrass,barnyardgrass [3],4 (6-10 (Severe damages))
C=C(Cl)CON=Cc1ccccc1Oc1nc(OC)cc(OC)n1 [Compound No. 14],pest or weed control at 300 g/ha,johnsongrass [1],30%
same,pest or weed control at 300 g/ha,barnyardgrass [2],85%
same,pest or weed control at 300 g/ha,redroot pigweed [6],85%
same,pest or weed control at 300 g/ha,green foxtail,30%
same,pest or weed control at 300 g/ha,morningglories,0%
same,Herbicidal effects Bulrush,bulrush,3 (11-40 (Medium damages))
same,Herbicidal effects Sagittaria Pygmaea,Sagittaria pygmaea,5 (0-5 (Death))
same,Herbicidal effects Barnyardgrass,barnyardgrass [3],5 (0-5 (Death))
"COc1cc(OC)nc(Oc2ccccc2C=NO)n1 [Compound No. 24, 2-(4,6-dimethoxy-2-pyrimidinyloxy)-benzaloxime]",pest or weed control at 300 g/ha,johnsongrass [1],20%
same,pest or weed control at 300 g/ha,barnyardgrass [2],50%
same,pest or weed control at 300 g/ha,redroot pigweed [6],50%
same,pest or weed control at 300 g/ha,green foxtail,20%
same,pest or weed control at 300 g/ha,morningglories,0%
same,Herbicidal effects Bulrush,bulrush,2 (41-70 (Small damages))
same,Herbicidal effects Sagittaria Pygmaea,Sagittaria pygmaea,4 (6-10 (Severe damages))
same,Herbicidal effects Barnyardgrass,barnyardgrass [3],3 (11-40 (Medium damages))
COc1cc(OC)nc(Oc2ccccc2C=NOCC=Cc2ccccc2Cl)n1 [Compound No. 27],pest or weed control at 300 g/ha,johnsongrass [1],30%
same,pest or weed control at 300 g/ha,barnyardgrass [2],50%
same,pest or weed control at 300 g/ha,redroot pigweed [6],50%
same,pest or weed control at 300 g/ha,green foxtail,30%
same,pest or weed control at 300 g/ha,morningglories,10%
same,Herbicidal effects Bulrush,bulrush,4 (6-10 (Severe damages))
same,Herbicidal effects Sagittaria Pygmaea,Sagittaria pygmaea,4 (6-10 (Severe damages))
same,Herbicidal effects Barnyardgrass,barnyardgrass [3],5 (0-5 (Death))
COc1cc(OC)nc(Oc2ccccc2C=NOCC=Cc2ccc(Cl)cc2)n1 [Compound No. 28],pest or weed control at 300 g/ha,johnsongrass [1],30%
same,pest or weed control at 300 g/ha,barnyardgrass [2],50%
same,pest or weed control at 300 g/ha,redroot pigweed [6],50%
same,pest or weed control at 300 g/ha,green foxtail,30%
same,pest or weed control at 300 g/ha,morningglories,0%
same,Herbicidal effects Bulrush,bulrush,3 (11-40 (Medium damages))
same,Herbicidal effects Sagittaria Pygmaea,Sagittaria pygmaea,3 (11-40 (Medium damages))
same,Herbicidal effects Barnyardgrass,barnyardgrass [3],3 (11-40 (Medium damages))
"COc1cc(OC)nc(Oc2ccccc2C=NOCC=Cc2cccc(C)c2)n1 [Compound No. 34, 0-(3-methylcinnamyl)-2-(4,6-dimethoxy-2-pyrimidinyloxy)benzaldoxime]",pest or weed control at 300 g/ha,johnsongrass [1],30%
same,pest or weed control at 300 g/ha,barnyardgrass [2],30%
same,pest or weed control at 300 g/ha,redroot pigweed [6],30%
same,pest or weed control at 300 g/ha,green foxtail,30%
same,pest or weed control at 300 g/ha,morningglories,0%
same,Herbicidal effects Bulrush,bulrush,4 (6-10 (Severe damages))
same,Herbicidal effects Sagittaria Pygmaea,Sagittaria pygmaea,5 (0-5 (Death))
same,Herbicidal effects Barnyardgrass,barnyardgrass [3],4 (6-10 (Severe damages))
COc1cc(OC)nc(Oc2ccccc2C=NOC(C)C)n1 [compound 6],pest or weed control at 1000 g/ha,johnsongrass [1],30%
same,pest or weed control at 1000 g/ha,barnyardgrass [2],50%
same,pest or weed control at 1000 g/ha,redroot pigweed [6],50%
same,pest or weed control at 1000 g/ha,green foxtail,30%
same,pest or weed control at 1000 g/ha,morningglories,0%
same,Herbicidal effects Bulrush,bulrush,4 (6-10 (Severe damages))
same,Herbicidal effects Sagittaria Pygmaea,Sagittaria pygmaea,4 (6-10 (Severe damages))
same,Herbicidal effects Barnyardgrass,barnyardgrass [3],4 (6-10 (Severe damages))
CC#CCON=Cc1ccccc1Oc1nc(OC)cc(OC)n1 [compound 10],pest or weed control at 1000 g/ha,johnsongrass [1],20%
same,pest or weed control at 1000 g/ha,barnyardgrass [2],10%
same,pest or weed control at 1000 g/ha,redroot pigweed [6],10%
same,pest or weed control at 1000 g/ha,green foxtail,20%
same,pest or weed control at 1000 g/ha,morningglories,0%
same,Herbicidal effects Bulrush,bulrush,4 (6-10 (Severe damages))
same,Herbicidal effects Sagittaria Pygmaea,Sagittaria pygmaea,4 (6-10 (Severe damages))
same,Herbicidal effects Barnyardgrass,barnyardgrass [3],5 (0-5 (Death))
COc1cc(OC)nc(Oc2ccccc2C=NOCC=Cc2ccc(Cl)cc2Cl)n1 [compound 30],pest or weed control at 300 g/ha,johnsongrass [1],10%
same,pest or weed control at 300 g/ha,barnyardgrass [2],40%
same,pest or weed control at 300 g/ha,redroot pigweed [6],40%
same,pest or weed control at 300 g/ha,green foxtail,20%
same,Herbicidal effects (%) Green foxtail Ea,green foxtail,20%
same,pest or weed control at 300 g/ha,morningglories,0%
same,Herbicidal effects Bulrush,bulrush,4 (6-10 (Severe damages))
same,Herbicidal effects Sagittaria Pygmaea,Sagittaria pygmaea,5 (0-5 (Death))
same,Herbicidal effects Barnyardgrass,barnyardgrass [3],5 (0-5 (Death))
COc1cc(OC)nc(Oc2ccccc2C=NOCC=Cc2ccccc2C(F)(F)F)n1 [compound 32],pest or weed control at 1000 g/ha,johnsongrass [1],30%
same,pest or weed control at 1000 g/ha,barnyardgrass [2],50%
same,pest or weed control at 1000 g/ha,redroot pigweed [6],50%
same,pest or weed control at 1000 g/ha,green foxtail,30%
same,pest or weed control at 1000 g/ha,morningglories,0%
same,Herbicidal effects Bulrush,bulrush,4 (6-10 (Severe damages))
same,Herbicidal effects Sagittaria Pygmaea,Sagittaria pygmaea,5 (0-5 (Death))
same,Herbicidal effects Barnyardgrass,barnyardgrass [3],5 (0-5 (Death))
COc1cccc(C=CCON=Cc2ccccc2Oc2nc(OC)cc(OC)n2)c1 [compound 38],pest or weed control at 300 g/ha,johnsongrass [1],40%
same,pest or weed control at 300 g/ha,barnyardgrass [2],50%
same,pest or weed control at 300 g/ha,redroot pigweed [6],50%
same,pest or weed control at 300 g/ha,green foxtail,40%
same,pest or weed control at 300 g/ha,morningglories,10%
same,Herbicidal effects Bulrush,bulrush,4 (6-10 (Severe damages))
same,Herbicidal effects Sagittaria Pygmaea,Sagittaria pygmaea,5 (0-5 (Death))
same,Herbicidal effects Barnyardgrass,barnyardgrass [3],4 (6-10 (Severe damages))
COc1cc(OC)nc(Oc2ccccc2C=NOCC#Cc2ccccc2)n1 [compound 42],pest or weed control at 300 g/ha,johnsongrass [1],50%
same,pest or weed control at 300 g/ha,barnyardgrass [2],50%
same,pest or weed control at 300 g/ha,redroot pigweed [6],50%
same,pest or weed control at 300 g/ha,green foxtail,50%
same,pest or weed control at 300 g/ha,morningglories,10%
same,Herbicidal effects Bulrush,bulrush,4 (6-10 (Severe damages))
same,Herbicidal effects Sagittaria Pygmaea,Sagittaria pygmaea,5 (0-5 (Death))
same,Herbicidal effects Barnyardgrass,barnyardgrass [3],5 (0-5 (Death))

# From patent publication US5053070A, “Pyrimidine derivatives, preparation processes thereof, herbicide containing the same, and herbicidal compositions containing the same along with other active ingredient” (Mitsui Toatsu Chemicals, Incorporated, priority 1988, dated 1991)
